Measurements reported in PubChem BioAssay (NCI).
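Assay format: 96-well plates, 48-hour exposure. TGI: concentration producing complete growth inhibition.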

Assays:
Assay in all cases: growth of human tumour cells (NCI), 48 h
SF-539 CNS = test system: SF-539 CNS
BT-549 breast = test system: BT-549 breast
CAKI-1 renal = test system: CAKI-1 renal
SK-MEL-28 melanoma = test system: SK-MEL-28 melanoma
OVCAR-8 ovarian = test system: OVCAR-8 ovarian
OVCAR-3 ovarian = test system: OVCAR-3 ovarian
SF-295 CNS = test system: SF-295 CNS
DU-145 prostate = test system: DU-145 prostate
SF-268 CNS = test system: SF-268 CNS
SN12C renal = test system: SN12C renal
IGROV1 ovarian = test system: IGROV1 ovarian
PC-3 prostate = test system: PC-3 prostate
MDA-MB-435 = test system: MDA-MB-435
SK-MEL-5 melanoma = test system: SK-MEL-5 melanoma
MOLT-4 leukemia = test system: MOLT-4 leukemia
MDA-N = test system: MDA-N
UACC-62 melanoma = test system: UACC-62 melanoma
U251 CNS = test system: U251 CNS
TK-10 renal = test system: TK-10 renal
LOX IMVI melanoma = test system: LOX IMVI melanoma
KM12 colon = test system: KM12 colon
HCT-15 colon = test system: HCT-15 colon
SNB-75 CNS = test system: SNB-75 CNS
HOP-62 NSCLC = test system: HOP-62 NSCLC
NCI-H226 lung = test system: NCI-H226 lung
NCI-H460 lung = test system: NCI-H460 lung
RPMI-8226 leukemia = test system: RPMI-8226 leukemia
OVCAR-4 ovarian = test system: OVCAR-4 ovarian
K-562 leukemia = test system: K-562 leukemia
MCF7 breast = test system: MCF7 breast
M14 melanoma = test system: M14 melanoma
HT29 colon = test system: HT29 colon
NCI-H522 lung = test system: NCI-H522 lung
HCC-2998 colon = test system: HCC-2998 colon
UO-31 renal = test system: UO-31 renal
SW-620 colon = test system: SW-620 colon
MDA-MB-231 breast = test system: MDA-MB-231 breast
OVCAR-5 ovarian = test system: OVCAR-5 ovarian
ACHN renal = test system: ACHN renal
T-47D breast = test system: T-47D breast
A549 NSCLC = test system: A549 NSCLC
UACC-257 melanoma = test system: UACC-257 melanoma
RXF 393 renal = test system: RXF 393 renal
HCT-116 colon = test system: HCT-116 colon
EKVX NSCLC = test system: EKVX NSCLC
COLO 205 colon = test system: COLO 205 colon
HS 578T breast = test system: HS 578T breast
SR leukemia = test system: SR leukemia
NCI/ADR-RES ovarian = test system: NCI/ADR-RES ovarian
HOP-92 NSCLC = test system: HOP-92 NSCLC
SK-MEL-2 melanoma = test system: SK-MEL-2 melanoma
SK-OV-3 ovarian = test system: SK-OV-3 ovarian
NCI-H23 lung = test system: NCI-H23 lung
HL-60(TB) leukemia = test system: HL-60(TB) leukemia
786-0 renal = test system: 786-0 renal
A498 renal = test system: A498 renal
SNB-19 CNS = test system: SNB-19 CNS
CCRF-CEM leukemia = test system: CCRF-CEM leukemia

Measured: TGI

O=C(O)C1[C@@H](C(=O)O)C1(Br)CBr (some centres undefined)
not listed: CCRF-CEM leukemia
> 100 µM: all other assays above

CC1=CN(c2ccccc2)S2=C1c1sc3c(c1N2c1ccc(Br)cc1)CCCC3 (centres undefined)
not listed: SNB-75 CNS
> 100 µM: all other assays above
